Data reported in patent US9012398B2, “Acylated exendin-4 compounds” (priority 2006, dated 2015).
Like-named read-outs stand apart in the source and are kept apart here. Starred links: 1 amine or outer side, 2 acyl side, 3 side chain; linkers in the order of their positions; H or OH if unused. Residues, ends and D or L forms follow the SMILES beside them. Groups on a side chain read outwards from the residue. *: point of attachment. γGlu = O=C(O)[C@H](CCC(=O)[*:2])N[*:1]; Stearoyl = CCCCCCCCCCCCCCCCCC(=O)*; Palmitoyl = CCCCCCCCCCCCCCCC(=O)*; AEEA = NCCOCCOCC(=O)O

Tests used:
human GLP-1 receptor = molecular target: T1, human GLP-1 receptor (Homo sapiens, UniProt P43220); test: Functional receptor assay: cAMP formation in plasma membranes of BHK cells expressing the cloned human GLP-1 receptor (GLP1cAMPma); format: biochemical
T1 construct: expressed in transfected cells; host or cells: BHK cells, clone BHK-467-12A; plasma membrane preparation
T1 sequence (P43220 24-463): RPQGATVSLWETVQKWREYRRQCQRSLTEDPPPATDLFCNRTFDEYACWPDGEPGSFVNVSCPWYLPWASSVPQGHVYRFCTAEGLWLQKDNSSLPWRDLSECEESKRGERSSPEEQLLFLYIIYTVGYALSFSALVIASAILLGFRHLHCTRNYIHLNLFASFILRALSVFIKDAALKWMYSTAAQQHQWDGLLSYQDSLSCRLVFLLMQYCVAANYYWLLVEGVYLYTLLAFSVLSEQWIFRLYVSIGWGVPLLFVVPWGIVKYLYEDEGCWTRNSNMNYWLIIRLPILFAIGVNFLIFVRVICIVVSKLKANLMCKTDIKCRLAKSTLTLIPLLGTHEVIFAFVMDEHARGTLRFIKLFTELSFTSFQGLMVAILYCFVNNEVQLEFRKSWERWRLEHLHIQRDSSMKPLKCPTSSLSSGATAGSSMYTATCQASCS
Procedure: The term “insulinotropic agent” as used herein means a compound which is an agonist of the human GLP-1 receptor, i.e. a compound which stimulates the formation of cAMP in a suitable medium containing the human GLP-1 receptor (one such medium disclosed below). The potency of an insulinotropic agent is determined by calculating the EC50 value from the dose-response curve as described below.
The cells were washed twice in phosphate buffered saline and harvested with Versene. Plasma membranes were prepared from the cells by homogenisation with an Ultraturrax in buffer 1 (20 mM HEPES-Na, 10 mM EDTA, pH 7.4). The homogenate was centrifuged at 48,000×g for 15 min at 4° C. The pellet was suspended by homogenization in buffer 2 (20 mM HEPES-Na, 0.1 mM EDTA, pH 7.4), then centrifuged at 48,000×g for 15 min at 4° C. The washing procedure was repeated one more time. The final pellet was suspended in buffer 2 and used immediately for assays or stored at −80° C.
The functional receptor assay was carried out by measuring cyclic AMP (cAMP) as a response to stimulation by the insulinotropic agent. cAMP formed was quantified by the AlphaScreen™ cAMP Kit (Perkin Elmer Life Sciences). Incubations were carried out in half-area 96-well microtiter plates in a total volume of 50 μL buffer 3 (50 mM Tris-HCl, 5 mM HEPES, 10 mM MgCl2, pH 7.4) and with the following additions: 1 mM ATP, 1 μM GTP, 0.5 mM 3-isobutyl-1-methylxanthine (IBMX), 0.01% Tween-20, 0.1% BSA, 6 μg membrane preparation, 15 μg/mL acceptor beads, 20 μg/mL donor beads preincubated with 6 nM biotinyl-cAMP. […] GTP was freshly prepared for each experiment. The plate was incubated in the dark with slow agitation for three hours at room temperature followed by counting in the Fusion™ instrument (Perkin Elmer Life Sciences). Concentration-response curves were plotted for the individual compounds and EC50 values estimated using a four-parameter logistic model with Prism v. 4.0 (GraphPad, Carlsbad, Calif.).

[1] = Chemical stability of solubilised peptide at 40° C., impurities monitored by RP-HPLC/UPLC; format: physicochemical; settings: for Formation rate of peptide related impurities at 40° C.: 2.5 weeks, 100 nmol peptide in 1 ml phosphate buffered saline, pH 7.4
Procedure: The chemical stability of solubilised acylated exendin-4 compounds were monitored by RP-HPLC following incubation at […]
The formation of exendin analogue related impurities relative to control samples stored in the freezer were monitored with a Waters UPLC system. Samples were applied to Acquity UPLC BEH C18 (1.7 μm) 2.1×50 mm column and eluted at a flow rate of 0.9 ml/min with linear stepwise gradients of acetonitrile in 0.1% trifluoroacetic acid (from 5 to 100% acetonitrile for 10 min, and from 100 to 5% acetonitrile for 1 min). The column was heated to 30 C and detection was performed at 214 nm.

[2] = cAMP, membranes with human GLP-1 receptor, mean value, read-out: GLP1cAMPma (3693) [EC50 (nM)] Mean Value

CCCCCCCCCCCCCCCCCC(=O)NCCOCCOCC(=O)NCCOCCOCC(=O)NCCOCCOCC(=O)NCCCC[C@H](NC(=O)[C@H](CCC(N)=O)NC(=O)[C@H](CCCNC(=N)N)NC(=O)[C@H](CO)NC(=O)[C@H](CC(C)C)NC(=O)[C@H](CC(=O)O)NC(=O)[C@H](CO)NC(=O)[C@@H](NC(=O)[C@H](Cc1ccccc1)NC(=O)[C@@H](NC(=O)CNC(=O)[C@H](CCC(=O)O)NC(=O)CNC(=O)[C@@H](N)Cc1c[nH]cn1)[C@@H](C)O)[C@@H](C)O)C(=O)N[C@@H](CCC(=O)O)C(=O)N[C@@H](CCC(=O)O)C(=O)N[C@@H](CCC(=O)O)C(=O)N[C@@H](C)C(=O)N[C@H](C(=O)N[C@@H](CCCNC(=N)N)C(=O)N[C@@H](CC(C)C)C(=O)N[C@@H](Cc1ccccc1)C(=O)N[C@H](C(=O)N[C@@H](CCC(=O)O)C(=O)N[C@@H](Cc1c[nH]c2ccccc12)C(=O)N[C@@H](CC(C)C)C(=O)N[C@H](C(=O)N[C@@H](CCCNC(=N)N)C(=O)NCC(=O)NCC(=O)N1CCC[C@H]1C(=O)N[C@@H](CO)C(=O)N[C@@H](CO)C(=O)NCC(=O)N[C@@H](C)C(=O)N1CCC[C@H]1C(=O)N1CCC[C@H]1C(=O)N1CCC[C@H]1C(=O)N[C@@H](CO)C(N)=O)C(C)C)[C@@H](C)CC)C(C)C [Example 26, N-ε^14-(2-(2-(2-(2-(2-(2-(2-(2-(2-(Octadecanoylamino)ethoxy)ethoxy)acetylamino)ethoxy)ethoxy)acetyl-amino)ethoxy)ethoxy)acetyl)[Arg^12,Lys^14,Val^27,Arg^28]Exendin-4-(1-39)-amide] (H-HGEGTFTSDLSRQK([AEEA-AEEA-AEEA-Stearoyl])EEEAVRLFIEWLVRGGPSSGAPPPS-NH2; N-terminus assumed)
EC50 (human GLP-1 receptor; [2]): 0.088 nM
Formation rate of peptide related impurities at 40° C. [1]: 2.0 %/week

CCCCCCCCCCCCCCCC(=O)N[C@@H](CCC(=O)NCCOCCOCC(=O)NCCOCCOCC(=O)NCCCC[C@H](NC(=O)[C@H](CCC(N)=O)NC(=O)[C@H](CCCNC(=N)N)NC(=O)[C@H](CO)NC(=O)[C@H](CC(C)C)NC(=O)[C@H](CC(=O)O)NC(=O)[C@H](CO)NC(=O)[C@@H](NC(=O)[C@H](Cc1ccccc1)NC(=O)[C@@H](NC(=O)CNC(=O)[C@H](CCC(=O)O)NC(=O)CNC(=O)[C@@H](N)Cc1c[nH]cn1)[C@@H](C)O)[C@@H](C)O)C(=O)N[C@@H](CCC(=O)O)C(=O)N[C@@H](CCC(=O)O)C(=O)N[C@@H](CCC(=O)O)C(=O)N[C@@H](C)C(=O)N[C@H](C(=O)N[C@@H](CCCNC(=N)N)C(=O)N[C@@H](CC(C)C)C(=O)N[C@@H](Cc1ccccc1)C(=O)N[C@H](C(=O)N[C@@H](CCC(=O)O)C(=O)N[C@@H](Cc1c[nH]c2ccccc12)C(=O)N[C@@H](CC(C)C)C(=O)N[C@H](C(=O)N[C@@H](CCCNC(=N)N)C(=O)NCC(=O)NCC(=O)N1CCC[C@H]1C(=O)N[C@@H](CO)C(=O)N[C@@H](CO)C(=O)NCC(=O)N[C@@H](C)C(=O)N1CCC[C@H]1C(=O)N1CCC[C@H]1C(=O)N1CCC[C@H]1C(=O)N[C@@H](CO)C(N)=O)C(C)C)[C@@H](C)CC)C(C)C)C(=O)O [Example 25] (H-HGEGTFTSDLSRQK([AEEA-AEEA-γGlu-Palmitoyl])EEEAVRLFIEWLVRGGPSSGAPPPS-NH2; N-terminus assumed)
EC50 (human GLP-1 receptor; [2]): 0.037 nM
Formation rate of peptide related impurities at 40° C. [1]: 3.0 %/week

CCCCCCCCCCCCCCCCCC(=O)NCCOCCOCC(=O)NCCOCCOCC(=O)NCCOCCOCC(=O)NCCCC[C@H](NC(=O)[C@@H](NC(=O)[C@H](C)NC(=O)[C@H](CCC(=O)O)NC(=O)[C@H](CCC(=O)O)NC(=O)[C@H](CCC(=O)O)NC(=O)[C@H](CC(C)C)NC(=O)[C@H](CCC(N)=O)NC(=O)[C@H](CCCNC(=N)N)NC(=O)[C@H](CO)NC(=O)[C@H](CC(C)C)NC(=O)[C@H](CC(=O)O)NC(=O)[C@H](CO)NC(=O)[C@@H](NC(=O)[C@H](Cc1ccccc1)NC(=O)[C@@H](NC(=O)CNC(=O)[C@H](CCC(=O)O)NC(=O)CNC(=O)[C@@H](N)Cc1c[nH]cn1)[C@@H](C)O)[C@@H](C)O)C(C)C)C(=O)N[C@@H](CC(C)C)C(=O)N[C@@H](Cc1ccccc1)C(=O)N[C@H](C(=O)N[C@@H](CCC(=O)O)C(=O)N[C@@H](Cc1c[nH]c2ccccc12)C(=O)N[C@@H](CC(C)C)C(=O)N[C@@H](CCCNC(=N)N)C(=O)N[C@@H](CCC(N)=O)C(=O)NCC(=O)NCC(=O)N1CCC[C@H]1C(=O)N[C@@H](CO)C(=O)N[C@@H](CO)C(=O)NCC(=O)N[C@@H](C)C(=O)N1CCC[C@H]1C(=O)N1CCC[C@H]1C(=O)N1CCC[C@H]1C(=O)N[C@@H](CO)C(N)=O)[C@@H](C)CC [Example 14, N-ε^20-(2-(2-(2-(2-(2-(2-(2-(2-(2-(Octadecanoylamino)ethoxy)ethoxy)acetylamino)ethoxy)ethoxy)acetyl-amino)ethoxy)ethoxy)acetyl))[Arg^12,27,Gln^28,Leu^14,Lys^20 Exendin-4(1-39)amide] (H-HGEGTFTSDLSRQLEEEAVK([AEEA-AEEA-AEEA-Stearoyl])LFIEWLRQGGPSSGAPPPS-NH2; N-terminus assumed)
EC50 (human GLP-1 receptor; [2]): 0.017 nM
Formation rate of peptide related impurities at 40° C. [1]: 1.5 %/week

Exendin-4 [reference compound]
formation rate of peptide related impurities ([1]; 100 nmol/ml in 50 mM phosphate buffer with 0.05% Tween 80, pH 8.0): 40-50 % per week

CCCCCCCCCCCCCCCCCC(=O)N[C@@H](CCC(=O)NCCOCCOCC(=O)NCCOCCOCC(=O)NCCCC[C@H](NC(=O)[C@H](CCC(N)=O)NC(=O)[C@H](CCCNC(=N)N)NC(=O)[C@H](CO)NC(=O)[C@H](CC(C)C)NC(=O)[C@H](CC(=O)O)NC(=O)[C@H](CO)NC(=O)[C@@H](NC(=O)[C@H](Cc1ccccc1)NC(=O)[C@@H](NC(=O)CNC(=O)[C@H](CCC(=O)O)NC(=O)CNC(=O)[C@@H](N)Cc1c[nH]cn1)[C@@H](C)O)[C@@H](C)O)C(=O)N[C@@H](CCC(=O)O)C(=O)N[C@@H](CCC(=O)O)C(=O)N[C@@H](CCC(=O)O)C(=O)N[C@@H](C)C(=O)N[C@H](C(=O)N[C@@H](CCCNC(=N)N)C(=O)N[C@@H](CC(C)C)C(=O)N[C@@H](Cc1ccccc1)C(=O)N[C@H](C(=O)N[C@@H](CCC(=O)O)C(=O)N[C@@H](Cc1c[nH]c2ccccc12)C(=O)N[C@@H](CC(C)C)C(=O)N[C@H](C(=O)N[C@@H](CCCNC(=N)N)C(=O)NCC(=O)NCC(=O)N1CCC[C@H]1C(=O)N[C@@H](CO)C(=O)N[C@@H](CO)C(=O)NCC(=O)N[C@@H](C)C(=O)N1CCC[C@H]1C(=O)N1CCC[C@H]1C(=O)N1CCC[C@H]1C(=O)N[C@@H](CO)C(N)=O)C(C)C)[C@@H](C)CC)C(C)C)C(=O)O [Example 29] (H-HGEGTFTSDLSRQK([AEEA-AEEA-γGlu-Stearoyl])EEEAVRLFIEWLVRGGPSSGAPPPS-NH2; N-terminus assumed)
EC50 (human GLP-1 receptor; [2]): 0.059 nM
Formation rate of peptide related impurities at 40° C. [1]: 2.0 %/week

CCCCCCCCCCCCCCCC(=O)N[C@@H](CCC(=O)NCCOCCOCC(=O)NCCCC[C@H](NC(=O)[C@H](CO)NC(=O)[C@H](CO)NC(=O)[C@@H]1CCCN1C(=O)CNC(=O)CNC(=O)[C@H](CC(N)=O)NC(=O)[C@H](CCCNC(=N)N)NC(=O)[C@H](CC(C)C)NC(=O)[C@H](Cc1c[nH]c2ccccc12)NC(=O)[C@H](CCC(=O)O)NC(=O)[C@@H](NC(=O)[C@H](Cc1ccccc1)NC(=O)[C@H](CC(C)C)NC(=O)[C@H](CCCNC(=N)N)NC(=O)[C@@H](NC(=O)[C@H](C)NC(=O)[C@H](CCC(=O)O)NC(=O)[C@H](CCC(=O)O)NC(=O)[C@H](CCC(=O)O)NC(=O)[C@H](CC(C)C)NC(=O)[C@H](CCC(N)=O)NC(=O)[C@H](CCCNC(=N)N)NC(=O)[C@H](CO)NC(=O)[C@H](CC(C)C)NC(=O)[C@H](CC(=O)O)NC(=O)[C@H](CO)NC(=O)[C@@H](NC(=O)[C@H](Cc1ccccc1)NC(=O)[C@@H](NC(=O)CNC(=O)[C@H](CCC(=O)O)NC(=O)CNC(=O)[C@@H](N)Cc1c[nH]cn1)[C@@H](C)O)[C@@H](C)O)C(C)C)[C@@H](C)CC)C(=O)N[C@@H](C)C(=O)N1CCC[C@H]1C(=O)N1CCC[C@H]1C(=O)N1CCC[C@H]1C(=O)N[C@@H](CO)C(N)=O)C(=O)O [Example 7, N-ε^34-[2-(2-[2-[4-hexadecanoylamino-4(S)-carboxybutyrylamino]ethoxy]ethoxy)acetyl][Arg^12,27,Leu^14,Lys^34] Exendin-4(1-39)amide] (H-HGEGTFTSDLSRQLEEEAVRLFIEWLRNGGPSSK([AEEA-γGlu-Palmitoyl])APPPS-NH2)
EC50 (human GLP-1 receptor): 0.012 nM
